Test results reported in article doi:10.1101/2020.07.01.182642v1 (biorxiv, 2020).

Tests used:
Conditions in all cases: binder
CDK2 = CDK2 (Homo sapiens, UniProt P24941)
PIM3 = PIM3 (Homo sapiens, UniProt Q86V86)
MYLK4 = biological target: T1, MYLK4 (Homo sapiens, UniProt Q86YV6)
T1 sequence (Q86YV6 1-388): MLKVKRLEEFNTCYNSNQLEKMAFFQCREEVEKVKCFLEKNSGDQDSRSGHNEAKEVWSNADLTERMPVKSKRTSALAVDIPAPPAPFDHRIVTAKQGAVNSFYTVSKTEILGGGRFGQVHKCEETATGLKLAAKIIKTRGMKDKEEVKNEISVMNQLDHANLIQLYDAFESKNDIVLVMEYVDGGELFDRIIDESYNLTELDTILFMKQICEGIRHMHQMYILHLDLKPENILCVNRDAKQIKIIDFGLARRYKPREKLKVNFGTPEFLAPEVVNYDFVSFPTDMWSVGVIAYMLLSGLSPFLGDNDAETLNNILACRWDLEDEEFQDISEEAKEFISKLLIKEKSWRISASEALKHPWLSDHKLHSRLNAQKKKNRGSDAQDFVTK

CAMK1G = CAMK1G (Homo sapiens, UniProt Q96NX5)
RPS6KA1 = RPS6KA1 (Homo sapiens, UniProt Q15418)
MAP2K2 = MAP2K2 (Homo sapiens, UniProt P36507)
PKN1 = PKN1 (Homo sapiens, UniProt Q16512)
CDK16 = CDK16 (Homo sapiens, UniProt Q00536)
RPS6KA6 = RPS6KA6 (Homo sapiens, UniProt Q9UK32)
CSNK2A1 = CSNK2A1 (Homo sapiens, UniProt P68400)
AAK1 = AAK1 (Homo sapiens, UniProt Q2M2I8)
VRK2 = VRK2 (Homo sapiens, UniProt Q86Y07)
CDK8 = CDK8 (Homo sapiens, UniProt P49336)
PHKG2 = biological target: T2, PHKG2 (Homo sapiens, UniProt P15735)
T2 sequence (P15735 1-406): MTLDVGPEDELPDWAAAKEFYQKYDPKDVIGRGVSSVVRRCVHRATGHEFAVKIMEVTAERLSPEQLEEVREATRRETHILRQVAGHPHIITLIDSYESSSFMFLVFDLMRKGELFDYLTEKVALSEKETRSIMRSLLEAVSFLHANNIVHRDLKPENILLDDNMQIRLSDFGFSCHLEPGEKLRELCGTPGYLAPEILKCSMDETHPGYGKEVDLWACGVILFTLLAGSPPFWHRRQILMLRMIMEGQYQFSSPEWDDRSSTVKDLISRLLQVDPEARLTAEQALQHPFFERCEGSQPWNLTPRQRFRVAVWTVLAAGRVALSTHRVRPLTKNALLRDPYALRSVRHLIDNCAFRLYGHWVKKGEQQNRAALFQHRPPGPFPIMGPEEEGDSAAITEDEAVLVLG

STK26 = STK26 (Homo sapiens, UniProt Q9P289)
LYN = LYN (Homo sapiens, UniProt P07948)
STK16 = STK16 (Homo sapiens, UniProt O75716)
SRPK3 = SRPK3 (Homo sapiens, UniProt Q9UPE1)
CAMK1D = CAMK1D (Homo sapiens, UniProt Q8IU85)
CLK2 = CLK2 (Homo sapiens, UniProt P49760)
PIM2 = PIM2 (Homo sapiens, UniProt Q9P1W9)
PRKAA1 = PRKAA1 (Homo sapiens, UniProt Q13131)
CDKL1 = CDKL1 (Homo sapiens, UniProt Q00532)
CDKL1, sequence (Q00532 whole entry): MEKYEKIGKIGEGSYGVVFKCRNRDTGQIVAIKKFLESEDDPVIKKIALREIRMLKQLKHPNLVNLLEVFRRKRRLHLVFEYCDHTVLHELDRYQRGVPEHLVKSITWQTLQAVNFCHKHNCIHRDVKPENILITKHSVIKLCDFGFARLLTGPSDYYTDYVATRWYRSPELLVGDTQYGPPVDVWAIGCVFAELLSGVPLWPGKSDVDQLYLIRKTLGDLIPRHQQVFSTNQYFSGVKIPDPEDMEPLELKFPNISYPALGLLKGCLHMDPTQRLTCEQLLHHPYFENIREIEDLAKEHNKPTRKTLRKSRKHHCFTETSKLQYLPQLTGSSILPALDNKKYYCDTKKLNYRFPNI

AAK1, sequence (Q2M2I8 whole entry): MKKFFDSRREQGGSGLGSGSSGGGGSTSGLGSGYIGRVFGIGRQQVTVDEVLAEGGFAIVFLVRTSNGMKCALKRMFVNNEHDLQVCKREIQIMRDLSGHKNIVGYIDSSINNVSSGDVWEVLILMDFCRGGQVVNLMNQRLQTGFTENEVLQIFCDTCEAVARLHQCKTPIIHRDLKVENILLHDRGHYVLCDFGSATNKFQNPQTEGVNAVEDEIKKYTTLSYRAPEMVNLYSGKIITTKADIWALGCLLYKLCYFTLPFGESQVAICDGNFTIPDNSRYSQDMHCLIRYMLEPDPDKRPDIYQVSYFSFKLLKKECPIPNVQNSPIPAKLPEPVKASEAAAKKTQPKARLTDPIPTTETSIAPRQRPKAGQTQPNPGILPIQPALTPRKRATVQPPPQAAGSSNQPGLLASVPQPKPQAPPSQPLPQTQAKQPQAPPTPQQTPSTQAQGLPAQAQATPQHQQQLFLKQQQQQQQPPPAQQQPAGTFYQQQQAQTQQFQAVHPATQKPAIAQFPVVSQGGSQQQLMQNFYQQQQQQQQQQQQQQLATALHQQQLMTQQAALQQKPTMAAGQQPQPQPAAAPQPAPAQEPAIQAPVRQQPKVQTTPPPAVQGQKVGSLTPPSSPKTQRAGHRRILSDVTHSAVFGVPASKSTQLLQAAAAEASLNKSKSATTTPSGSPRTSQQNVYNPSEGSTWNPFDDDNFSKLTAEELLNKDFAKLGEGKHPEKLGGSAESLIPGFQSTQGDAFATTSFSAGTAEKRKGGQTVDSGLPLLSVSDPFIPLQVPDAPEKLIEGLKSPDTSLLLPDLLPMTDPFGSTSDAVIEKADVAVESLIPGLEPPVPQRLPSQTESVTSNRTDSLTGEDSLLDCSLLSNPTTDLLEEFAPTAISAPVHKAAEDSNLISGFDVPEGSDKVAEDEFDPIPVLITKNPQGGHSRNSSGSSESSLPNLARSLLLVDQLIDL
RPS6KA1, sequence (Q15418 whole entry): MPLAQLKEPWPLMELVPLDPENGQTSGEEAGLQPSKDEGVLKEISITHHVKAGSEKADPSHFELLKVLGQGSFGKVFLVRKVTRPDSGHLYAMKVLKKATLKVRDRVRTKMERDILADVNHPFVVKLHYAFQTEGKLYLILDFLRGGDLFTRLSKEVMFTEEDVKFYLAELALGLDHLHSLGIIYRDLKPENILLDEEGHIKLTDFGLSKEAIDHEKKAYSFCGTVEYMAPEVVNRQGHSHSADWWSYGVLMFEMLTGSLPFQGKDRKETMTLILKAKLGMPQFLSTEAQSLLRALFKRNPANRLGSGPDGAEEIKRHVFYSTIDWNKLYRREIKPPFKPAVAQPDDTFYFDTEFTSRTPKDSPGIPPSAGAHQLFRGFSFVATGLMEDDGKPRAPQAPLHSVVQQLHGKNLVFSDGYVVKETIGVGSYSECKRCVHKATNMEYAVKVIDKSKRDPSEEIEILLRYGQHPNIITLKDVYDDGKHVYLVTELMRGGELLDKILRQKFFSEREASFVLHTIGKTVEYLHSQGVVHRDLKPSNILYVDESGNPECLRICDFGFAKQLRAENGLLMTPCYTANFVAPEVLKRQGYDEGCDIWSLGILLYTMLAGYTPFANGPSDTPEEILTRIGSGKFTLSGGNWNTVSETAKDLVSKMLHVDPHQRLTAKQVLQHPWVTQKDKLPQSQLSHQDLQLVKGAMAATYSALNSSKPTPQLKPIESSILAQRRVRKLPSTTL
RPS6KA6, sequence (Q9UK32 whole entry): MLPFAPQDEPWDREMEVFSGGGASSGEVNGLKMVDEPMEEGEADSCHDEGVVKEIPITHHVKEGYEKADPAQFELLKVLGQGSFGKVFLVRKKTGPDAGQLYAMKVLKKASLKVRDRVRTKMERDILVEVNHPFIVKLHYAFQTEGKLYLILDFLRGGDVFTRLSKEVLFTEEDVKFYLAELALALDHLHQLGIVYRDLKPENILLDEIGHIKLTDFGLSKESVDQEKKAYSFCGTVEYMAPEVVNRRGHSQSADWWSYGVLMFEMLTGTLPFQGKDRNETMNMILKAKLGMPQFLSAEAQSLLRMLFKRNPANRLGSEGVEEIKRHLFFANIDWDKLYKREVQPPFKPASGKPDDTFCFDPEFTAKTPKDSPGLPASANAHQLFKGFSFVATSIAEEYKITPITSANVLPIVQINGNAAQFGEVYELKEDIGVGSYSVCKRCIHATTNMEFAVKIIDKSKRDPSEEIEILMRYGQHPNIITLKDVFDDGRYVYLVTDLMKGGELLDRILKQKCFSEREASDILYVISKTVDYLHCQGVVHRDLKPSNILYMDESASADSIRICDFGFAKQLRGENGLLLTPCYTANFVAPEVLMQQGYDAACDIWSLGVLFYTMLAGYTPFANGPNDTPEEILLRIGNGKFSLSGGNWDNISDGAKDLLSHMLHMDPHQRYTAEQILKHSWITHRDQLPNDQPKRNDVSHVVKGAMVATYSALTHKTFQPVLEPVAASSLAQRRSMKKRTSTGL
CDK16, sequence (Q00536 whole entry): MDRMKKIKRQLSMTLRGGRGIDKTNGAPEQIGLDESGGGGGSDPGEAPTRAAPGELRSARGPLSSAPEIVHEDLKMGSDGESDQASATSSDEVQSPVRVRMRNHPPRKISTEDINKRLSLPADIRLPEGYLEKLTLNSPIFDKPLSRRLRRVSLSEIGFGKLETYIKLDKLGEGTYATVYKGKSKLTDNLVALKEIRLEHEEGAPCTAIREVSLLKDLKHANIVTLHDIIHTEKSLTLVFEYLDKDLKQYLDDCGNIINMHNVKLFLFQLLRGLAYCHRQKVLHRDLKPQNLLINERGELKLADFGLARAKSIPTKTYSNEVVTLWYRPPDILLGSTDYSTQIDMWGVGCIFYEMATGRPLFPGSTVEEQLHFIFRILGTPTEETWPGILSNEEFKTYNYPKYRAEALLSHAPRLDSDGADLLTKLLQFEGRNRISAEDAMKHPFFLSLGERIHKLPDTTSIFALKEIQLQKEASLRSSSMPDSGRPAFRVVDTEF
CLK2, sequence (P49760 whole entry): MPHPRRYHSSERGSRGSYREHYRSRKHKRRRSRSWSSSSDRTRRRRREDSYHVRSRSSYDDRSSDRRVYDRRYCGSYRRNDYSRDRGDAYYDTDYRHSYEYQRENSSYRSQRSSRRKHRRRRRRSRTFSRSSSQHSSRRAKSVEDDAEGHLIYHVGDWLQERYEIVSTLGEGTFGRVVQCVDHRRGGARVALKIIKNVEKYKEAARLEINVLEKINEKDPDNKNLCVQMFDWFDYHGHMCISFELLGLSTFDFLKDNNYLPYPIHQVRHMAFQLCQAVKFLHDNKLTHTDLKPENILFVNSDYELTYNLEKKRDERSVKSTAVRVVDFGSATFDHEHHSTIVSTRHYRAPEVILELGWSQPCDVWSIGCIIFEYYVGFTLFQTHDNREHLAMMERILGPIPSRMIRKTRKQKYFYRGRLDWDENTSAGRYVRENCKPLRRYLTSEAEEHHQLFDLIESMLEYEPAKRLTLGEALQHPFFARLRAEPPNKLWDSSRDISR
PIM2, sequence (Q9P1W9 whole entry): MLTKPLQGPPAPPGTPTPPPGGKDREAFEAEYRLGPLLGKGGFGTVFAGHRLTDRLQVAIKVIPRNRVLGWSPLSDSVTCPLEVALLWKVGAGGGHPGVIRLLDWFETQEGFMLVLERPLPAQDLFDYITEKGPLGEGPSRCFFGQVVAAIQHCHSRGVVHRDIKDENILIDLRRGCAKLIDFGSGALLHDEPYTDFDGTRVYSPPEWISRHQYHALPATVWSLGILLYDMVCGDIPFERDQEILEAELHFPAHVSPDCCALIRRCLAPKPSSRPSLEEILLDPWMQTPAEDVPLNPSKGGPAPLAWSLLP
SRPK3, sequence (Q9UPE1 whole entry): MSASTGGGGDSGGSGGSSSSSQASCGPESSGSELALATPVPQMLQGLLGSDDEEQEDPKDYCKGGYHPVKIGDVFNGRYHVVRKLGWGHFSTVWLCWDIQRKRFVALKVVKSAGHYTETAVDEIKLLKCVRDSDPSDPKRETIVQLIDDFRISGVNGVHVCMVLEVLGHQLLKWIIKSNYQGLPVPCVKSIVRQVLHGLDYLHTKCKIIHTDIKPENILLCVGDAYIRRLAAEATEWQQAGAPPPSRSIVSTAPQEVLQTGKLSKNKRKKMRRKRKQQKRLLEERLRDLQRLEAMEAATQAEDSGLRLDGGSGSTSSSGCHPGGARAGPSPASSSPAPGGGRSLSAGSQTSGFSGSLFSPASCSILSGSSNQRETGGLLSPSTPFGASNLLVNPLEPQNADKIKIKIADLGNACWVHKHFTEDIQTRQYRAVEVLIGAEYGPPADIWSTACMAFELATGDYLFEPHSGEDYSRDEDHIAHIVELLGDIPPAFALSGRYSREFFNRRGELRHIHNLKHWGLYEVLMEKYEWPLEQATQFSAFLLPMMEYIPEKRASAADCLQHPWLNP
STK16, sequence (O75716 whole entry): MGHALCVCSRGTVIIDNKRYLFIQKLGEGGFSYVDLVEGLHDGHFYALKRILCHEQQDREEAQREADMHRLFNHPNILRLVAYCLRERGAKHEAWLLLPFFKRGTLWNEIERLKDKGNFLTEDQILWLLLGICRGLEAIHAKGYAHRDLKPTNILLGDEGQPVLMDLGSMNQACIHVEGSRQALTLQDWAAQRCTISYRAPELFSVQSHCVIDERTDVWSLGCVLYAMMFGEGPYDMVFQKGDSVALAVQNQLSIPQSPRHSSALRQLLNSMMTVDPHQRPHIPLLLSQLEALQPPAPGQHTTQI

Question: How did the “ΔTm inhibitor 1” value (CDK2) turn out when `CC(=O)c1cccc(-c2cnc3ccc(NCC4CC4)nn23)c1` [compound 1, K00135] was run?
Answer: 1.5 °C

Question: What about the “ΔTm inhibitor 1” value (PIM3) of the same molecule?
Answer: 6.8 °C

Question: What about the “ΔTm inhibitor 1” value (MYLK4) of the same molecule?
Answer: 5.8 °C

Question: What about the “ΔTm inhibitor 1” value (CAMK1G) of the same molecule?
Answer: 0.6 °C

Question: And the “ΔTm inhibitor 1” value (RPS6KA1)?
Answer: 5.2 °C

Question: And the “ΔTm inhibitor 1” value (MAP2K2)?
Answer: 2 °C

Question: What about the “ΔTm inhibitor 1” value (PKN1) of the same molecule?
Answer: 1.7 °C

Question: And the “ΔTm inhibitor 1” value (CDK16)?
Answer: 0.5 °C

Question: And the “ΔTm inhibitor 1” value (RPS6KA6)?
Answer: 4.2 °C

Question: And the “ΔTm inhibitor 1” value (CSNK2A1)?
Answer: 3.3 °C

Question: What about the “ΔTm inhibitor 1” value (AAK1) of the same molecule?
Answer: 6.9 °C

Question: What about the “ΔTm inhibitor 1” value (VRK2) of the same molecule?
Answer: 1.5 °C

Question: What about the “ΔTm inhibitor 1” value (CDK8) of the same molecule?
Answer: 2.7 °C

Question: And the “ΔTm inhibitor 1” value (PHKG2)?
Answer: 1.7 °C

Question: What about the “ΔTm inhibitor 1” value (STK26) of the same molecule?
Answer: 0.3 °C

Question: What about the “ΔTm inhibitor 1” value (LYN) of the same molecule?
Answer: 2.4 °C

Question: And the “ΔTm inhibitor 1” value (STK16)?
Answer: 2.3 °C

Question: And the “ΔTm inhibitor 1” value (SRPK3)?
Answer: 0.4 °C

Question: What about the “ΔTm inhibitor 1” value (CAMK1D) of the same molecule?
Answer: 0.6 °C

Question: What about the “ΔTm inhibitor 1” value (CLK2) of the same molecule?
Answer: 5.5 °C

Question: What about the “ΔTm inhibitor 1” value (PIM2) of the same molecule?
Answer: 4.7 °C

Question: And the “ΔTm inhibitor 1” value (PRKAA1)?
Answer: 1.3 °C

Question: What about the “ΔTm inhibitor 1” value (CDKL1) of the same molecule?
Answer: 0.2 °C

Question: Which “ΔTm inhibitor 2” value (CDK2) does the source give for `CCN1/C(=C/C(C)=O)Sc2ccc(OC)cc21` [compound 2, TG003] here?
Answer: -0.1 °C

Question: And the “ΔTm inhibitor 2” value (PIM3)?
Answer: 4.9 °C

Question: What about the “ΔTm inhibitor 2” value (MYLK4) of the same molecule?
Answer: 0.9 °C

Question: And the “ΔTm inhibitor 2” value (CAMK1G)?
Answer: -0.1 °C

Question: And the “ΔTm inhibitor 2” value (RPS6KA1)?
Answer: 0.6 °C

Question: What about the “ΔTm inhibitor 2” value (MAP2K2) of the same molecule?
Answer: 0.5 °C

Question: And the “ΔTm inhibitor 2” value (PKN1)?
Answer: -0.5 °C

Question: What about the “ΔTm inhibitor 2” value (CDK16) of the same molecule?
Answer: -0.4 °C

Question: And the “ΔTm inhibitor 2” value (RPS6KA6)?
Answer: 0.4 °C

Question: What about the “ΔTm inhibitor 2” value (CSNK2A1) of the same molecule?
Answer: 2.6 °C

Question: And the “ΔTm inhibitor 2” value (AAK1)?
Answer: 1.5 °C

Question: And the “ΔTm inhibitor 2” value (VRK2)?
Answer: 0.2 °C

Question: And the “ΔTm inhibitor 2” value (CDK8)?
Answer: 0.1 °C

Question: And the “ΔTm inhibitor 2” value (PHKG2)?
Answer: 0.2 °C

Question: What about the “ΔTm inhibitor 2” value (STK26) of the same molecule?
Answer: -0.3 °C

Question: And the “ΔTm inhibitor 2” value (LYN)?
Answer: 0.1 °C

Question: And the “ΔTm inhibitor 2” value (STK16)?
Answer: 0.2 °C

Question: And the “ΔTm inhibitor 2” value (SRPK3)?
Answer: 0.0 °C

Question: What about the “ΔTm inhibitor 2” value (CAMK1D) of the same molecule?
Answer: 0.0 °C

Question: And the “ΔTm inhibitor 2” value (CLK2)?
Answer: 5.0 °C

Question: And the “ΔTm inhibitor 2” value (PIM2)?
Answer: 3.6 °C

Question: What about the “ΔTm inhibitor 2” value (PRKAA1) of the same molecule?
Answer: -0.3 °C

Question: What about the “ΔTm inhibitor 2” value (CDKL1) of the same molecule?
Answer: 0.4 °C

Question: With `Nc1nccc(-c2ccc3noc(-c4ccc(Cl)cc4)c3c2)n1` [compound 4, K00972] as the molecule, how does the “ΔTm inhibitor 4” value (CDK2) read?
Answer: 0.3 °C

Question: And the “ΔTm inhibitor 4” value (PIM3)?
Answer: 5.4 °C

Question: What about the “ΔTm inhibitor 4” value (MYLK4) of the same molecule?
Answer: 3.9 °C

Question: What about the “ΔTm inhibitor 4” value (CAMK1G) of the same molecule?
Answer: 0.3 °C

Question: And the “ΔTm inhibitor 4” value (RPS6KA1)?
Answer: 0.6 °C

Question: What about the “ΔTm inhibitor 4” value (MAP2K2) of the same molecule?
Answer: 0.1 °C

Question: What about the “ΔTm inhibitor 4” value (PKN1) of the same molecule?
Answer: 0.4 °C

Question: What about the “ΔTm inhibitor 4” value (CDK16) of the same molecule?
Answer: 1.2 °C

Question: And the “ΔTm inhibitor 4” value (RPS6KA6)?
Answer: 2.1 °C

Question: And the “ΔTm inhibitor 4” value (CSNK2A1)?
Answer: 0.2 °C

Question: And the “ΔTm inhibitor 4” value (AAK1)?
Answer: 3.4 °C

Question: And the “ΔTm inhibitor 4” value (VRK2)?
Answer: 0.0 °C

Question: And the “ΔTm inhibitor 4” value (CDK8)?
Answer: 1.9 °C

Question: What about the “ΔTm inhibitor 4” value (PHKG2) of the same molecule?
Answer: 1.7 °C

Question: And the “ΔTm inhibitor 4” value (STK26)?
Answer: 0.1 °C

Question: And the “ΔTm inhibitor 4” value (LYN)?
Answer: 0.3 °C

Question: And the “ΔTm inhibitor 4” value (STK16)?
Answer: 3.5 °C

Question: And the “ΔTm inhibitor 4” value (SRPK3)?
Answer: 0.2 °C

Question: And the “ΔTm inhibitor 4” value (CAMK1D)?
Answer: 0.2 °C

Question: And the “ΔTm inhibitor 4” value (CLK2)?
Answer: 7.2 °C

Question: And the “ΔTm inhibitor 4” value (PIM2)?
Answer: 2.1 °C

Question: And the “ΔTm inhibitor 4” value (PRKAA1)?
Answer: 0.5 °C

Question: And the “ΔTm inhibitor 4” value (CDKL1)?
Answer: 0.8 °C
